Reference: ChEMBL document CHEMBL1139028, “Seco-prolinenitrile inhibitors of dipeptidyl peptidase IV define minimal pharmacophore requirements at P1” (Bioorg Med Chem Lett, 2006)
pKi: −log10 of the molar value. Activity calls are given as the source filed them. The rule behind the calls is not given here.

What follows are compounds tested against Dipeptidyl peptidase 4 (Homo sapiens, UniProt P27487) (assay: Inhibition of DPP4).
Dipeptidyl peptidase 4, sequence (P27487 whole entry): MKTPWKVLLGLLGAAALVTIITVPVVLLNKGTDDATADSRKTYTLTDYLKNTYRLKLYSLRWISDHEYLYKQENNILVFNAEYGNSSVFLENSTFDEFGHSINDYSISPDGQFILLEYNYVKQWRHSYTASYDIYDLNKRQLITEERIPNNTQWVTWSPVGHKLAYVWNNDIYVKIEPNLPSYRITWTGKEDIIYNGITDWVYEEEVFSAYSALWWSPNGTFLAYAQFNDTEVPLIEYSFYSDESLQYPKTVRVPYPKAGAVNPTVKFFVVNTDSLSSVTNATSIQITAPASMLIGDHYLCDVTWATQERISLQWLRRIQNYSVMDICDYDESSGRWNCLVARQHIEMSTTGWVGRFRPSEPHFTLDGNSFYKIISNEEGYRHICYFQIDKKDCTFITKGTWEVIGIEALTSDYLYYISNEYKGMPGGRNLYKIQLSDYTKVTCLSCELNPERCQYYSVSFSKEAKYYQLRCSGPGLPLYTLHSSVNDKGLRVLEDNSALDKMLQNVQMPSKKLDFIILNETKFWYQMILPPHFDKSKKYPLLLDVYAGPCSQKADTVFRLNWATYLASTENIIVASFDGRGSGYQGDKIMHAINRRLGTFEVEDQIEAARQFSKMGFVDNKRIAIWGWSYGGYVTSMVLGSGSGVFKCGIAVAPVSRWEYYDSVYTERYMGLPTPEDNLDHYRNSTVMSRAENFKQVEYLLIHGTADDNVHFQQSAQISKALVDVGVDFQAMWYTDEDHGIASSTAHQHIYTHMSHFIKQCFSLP

Structure (SMILES)	pKi
CC(C)(C#N)NC(=O)[C@@H](N)C(C)(C)C	< 5.00
CC(C)(C#N)NC(=O)[C@@H](N)C12CC3CC(CC(C3)C1)C2	< 5.00
CCCCN(CC#N)C(=O)[C@@H](N)C(C)(C)C	< 5.00

Continued, values first:

pKi	Structure (SMILES)
< 5.00	N#CCN(Cc1ccccc1)C(=O)[C@@H](N)C12CC3CC(CC(C3)C1)C2
< 5.00	N#CCNC(=O)[C@@H](N)C12CC3CC(CC(C3)C1)C2

The compounds below were run on Rattus norvegicus (assay: Antihyperglycemic activity in Zucker fa/fa rat by oral glucose tolerance test at 3 umol/kg, po).
Format: functional, organism-based

Structure (SMILES)	Activity
CN(CC#N)C(=O)[C@@H](N)C12CC3CC(CC(O)(C3)C1)C2	Active
